{
  "source": "patent US20240351966A1",
  "about": "“CLASS OF ALKYLPHENOL COMPOUNDS AND PREPARATION METHOD THEREFOR” (Shanghai Institute of Materia Medica, Chinese Academy of …, priority 2021, published 2024)",
  "data": [
    {"target": "DRAK2 (Homo sapiens (Human), UniProt O94768)", "sequence (O94768 whole entry, species assumed)": "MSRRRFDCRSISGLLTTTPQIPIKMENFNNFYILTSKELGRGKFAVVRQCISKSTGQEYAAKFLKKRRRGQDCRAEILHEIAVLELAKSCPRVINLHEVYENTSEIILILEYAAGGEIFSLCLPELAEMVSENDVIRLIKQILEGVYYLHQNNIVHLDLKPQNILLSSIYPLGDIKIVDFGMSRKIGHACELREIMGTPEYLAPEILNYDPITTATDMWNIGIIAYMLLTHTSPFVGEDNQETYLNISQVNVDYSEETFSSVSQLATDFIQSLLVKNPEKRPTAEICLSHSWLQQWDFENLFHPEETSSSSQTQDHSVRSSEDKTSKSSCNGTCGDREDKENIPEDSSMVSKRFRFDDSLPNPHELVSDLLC", "assay": "Evaluation of DRAK2 inhibitory activity by ADP-Glo kinase assay", "assay_type": "biochemical", "conditions": "ADP-Glo luminescent kinase assay", "text": "To determine the inhibitory activity of compounds against kinases by the kinase assay kit ADP-GLO.\nDRAK2 is a serine/threonine protein kinase. ADP Glo& #8482; Kinase Assay (ADP Glo& #8482; Kinase Assay Kit) is a luminescent kinase assay kit that can detect ADP formed during kinase reactions; this kit can firstly convert ADP into ATP, which is then captured by Ultra Glo& #8482, luciferase and ultimately converts into light. The emitted light signal is positively correlated with the corresponding ATP, thus through this method, the inhibitory activity of small molecule compounds on DRAK2 can be measured.\nThe compound was dissolved in DMSO before experiment to prepare stock solution.\nWhen using, the stock solution was diluted with culture medium to a desired concentration.\n• 1. 1 μl of compound was added to the well for each assay • 2. […] 2 μl of ATP was added to each well of the assay plate • 4. the plate was shook and centrifuged.\n2.5 μl ADP-Glo™ reagent was add to terminate kinase reaction and consume unconsumed ATP, leaving only ADP and very low ATP background to incubate at room temperature for 60 minutes.\n5 μl of kinase assay reagent was add to convert ADP to ATP, and luciferase and […] were introduced to detect ATP.\nEnvision was used to measure luminescence\n• 1. Values were copied from Envision program\nThe “minimum” refers to the proportion of without enzyme control, while “maximum” refers to the proportion of DMSO control. • 3. GraphPad Prism 5.0 was used to process data\nThrough this method, the inhibitory activity of small molecule compounds on DRAK2 can be obtained.", "units": {"IC50": "µM"}, "values": [
      {"compound": "CCCCCCc1cccc(CCCc2cc(O)cc(O)c2)c1", "note": "[Compound 17]", "IC50": "4.94 ± 1.18"},
      {"compound": "CCCCCCc1cccc(CCCc2cc(O)cc(O)c2Cl)c1", "note": "[Compound 28]", "IC50": "4.06 ± 0.35"},
      {"compound": "CCCCCCC=CCCCCCCCc1ccc(O)cc1O", "note": "[Compound 1]", "IC50": "7.73 ± 0.7"},
      {"compound": "CCCCCCc1cccc(CCCc2cc(O)cc(NS(=O)(=O)CC)c2)c1", "note": "[Compound 39]", "IC50": "4.93 ± 1.09"}
    ]}
  ]
}
